Data: patent US20240287071A1, “CLASS OF IMIDAZOLIDINOPYRIMIDONE COMPOUNDS AND USE THEREOF IN TREATMENT OF HSCLPP-MEDIATED DISEASES” (SICHUAN UNIVERSITY, priority 2021, published 2024)

What was measured:
HsClpP = HsClpP (Homo sapiens, UniProt Q16740); experiment: HsClpP enzyme hydrolysis of short peptide substrate AC-WLA-AMC; conditions: promoting hydrolysis of short peptide substrate by HsClpP, relative to blank control
HCT116 = experiment: CCK-8 in vitro anti-tumor proliferation assay; assay type: cell-based; conditions: Homo sapiens, HCT-116; Table 5; HCT116; 72 hours; read-out: IC50
Protocol: Example 3: In vitro anti-tumor proliferation assay of the compounds. The purpose of this experiment was to use CCK-8 to detect the in vitro inhibitory activity of the compounds of the present invention against the proliferation of tumor cells. The main reagents, such as RPMI-1640, DMEM high-glucose culture medium, fetal bovine serum, trypsin, etc., were purchased from Gibco BRL. CCK8 and DMSO were products of Sigma. For in vitro experiment, the test compounds were prepared as 10 mM stock solutions in DMSO and stored at −20° C. in the refrigerator in the dark for later use, then diluted to desired concentration with complete culture medium before use. The human lung cancer cells, colon cancer cells, breast cancer cells, glioblastoma cells, human myelomonocytic leukemia cells, and human Burkitt's lymphoma cells used in this experiment were all purchased from the American ATCC company and preserved in laboratory of the inventors. All the above cell lines were cultured in RPMI-1640 complete medium or DMEM complete medium containing 10% fetal bovine serum, 100 U/mL penicillin, and 100 μg/mL streptomycin under 5% carbon dioxide, 37° C. conditions. […] The previous culture medium was discarded, fresh culture medium was added to resuspend the cells, and then the cells were counted. According to the growth rate of different cells, the cell seeding concentration was determined, generally being 3000-5000 cells/well. After determining the seeding concentration, the cell suspension was diluted to desired concentrations with fresh culture medium, and then added to a 96-well plate with 100 μL per well, and 200 μL of PBS was added to the edge wells to prevent evaporation of the culture medium. On the second day, drug treatment was performed. First, the compounds were diluted into a series of gradients with culture medium, and then the drug solution was added to the 96-well plate, with 3 parallel wells for each gradient. Each plate set a blank control group, and ONC201 was used as the positive control group.

Sequence of HsClpP (Q16740 57-277): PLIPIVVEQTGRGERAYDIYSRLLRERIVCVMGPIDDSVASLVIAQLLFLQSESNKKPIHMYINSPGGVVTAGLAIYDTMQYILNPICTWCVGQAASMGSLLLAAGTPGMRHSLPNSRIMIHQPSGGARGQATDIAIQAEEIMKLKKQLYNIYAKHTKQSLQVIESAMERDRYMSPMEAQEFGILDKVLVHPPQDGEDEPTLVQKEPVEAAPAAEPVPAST

Row | Regulatory efficacy 1 μM (HsClpP) | Regulatory efficacy 10 μM (HsClpP) | IC50 (HCT116) [nM] | SMILES
1 | + + | + + | 1200 | COc1ccc(CN2CCn3c2nc(=O)c2c3CCN(Cc3ccccc3)C2)cc1 [Compound 14, 7-benzyl-3-(4-methoxybenzyl)-2,3,6,7,8,9-hexahydroimidazo[1,2-a]pyrido[3,4-e]pyrimidin-5(1H)-one]
2 | + + | + + | 200 | Cc1ccc(CN2CCn3c2nc(=O)c2c3CCN(Cc3ccccc3)C2)cc1 [Compound 12, 7-benzyl-3-(4-methylbenzyl)-2,3,6,7,8,9-hexahydroimidazo[1,2-a]pyrido[3,4-e]pyrimidin-5(1H)-one]
3 | + + | + + | 500 | Cc1ccccc1CN1CCn2c1nc(=O)c1c2CCN(Cc2cccc(C#N)c2)C1 [Compound 35, 3-((3-(2-methylbenzyl)-5-oxo-2,3,6,7,8,9-hexahydroimidazo[1,2-a]pyrido[3,4-e]pyrimidin-7(6H)-yl)methyl)benzonitrile]
4 | + + | + + | 1300 | COc1ccccc1CN1CCn2c1nc(=O)c1c2CCN(Cc2ccccc2)C1 [Compound 13, 7-benzyl-3-(2-methoxybenzyl)-2,3,6,7,8,9-hexahydroimidazo[1,2-a]pyrido[3,4-e]pyrimidin-5(1H)-one]
5 | + + | + + | 500 | O=c1nc2n(c3c1CN(Cc1ccccc1)CC3)CCN2Cc1ccc(Br)cc1 [Compound 17, 7-benzyl-3-(4-bromobenzyl)-2,3,6,7,8,9-hexahydroimidazo[1,2-a]pyrido[3,4-e]pyrimidin-5(1H)-one]
6 | + + | + + | 30 | O=c1nc2n(c3c1CN(Cc1ccccc1)CC3)CCN2Cc1ccc(Cl)c(Cl)c1 [Compound 26, 7-benzyl-3-(3,4-dichlorobenzyl)-2,3,6,7,8,9-hexahydroimidazo[1,2-a]pyrido[3,4-e]pyrimidin-5(1H)-one]
7 | + + | + + | 300 | Cc1cccc(CN2CCn3c2nc(=O)c2c3CCN(Cc3ccccc3)C2)c1 [Compound 11, 7-benzyl-3-(3-methylbenzyl)-2,3,6,7,8,9-hexahydroimidazo[1,2-a]pyrido[3,4-e]pyrimidin-5(1H)-one]
8 | + + | + + | 1500 | Cc1cccc(CN2CCc3c(c(=O)nc4n3CCN4Cc3ccccc3C)C2)c1 [Compound 32, 3-(2-methylbenzyl)-7-(3-methylbenzyl)-2,3,6,7,8,9-hexahydroimidazo[1,2-a]pyrido[3,4-e]pyrimidin-5(1H)-one]
9 | + + | + + | 80 | O=c1nc2n(c3c1CN(Cc1ccccc1)CC3)CCN2Cc1ccc(Br)c(F)c1 [Compound 22, 7-benzyl-3-(4-bromo-3-fluorobenzyl)-2,3,6,7,8,9-hexahydroimidazo[1,2-a]pyrido[3,4-e]pyrimidin-5 (1H)-one]

The remaining lines, values behind:

Row | SMILES | Regulatory efficacy 1 μM (HsClpP) | Regulatory efficacy 10 μM (HsClpP) | IC50 (HCT116) [nM]
10 | CN1CCn2c1nc(=O)c1c2CCN(Cc2ccccc2)C1 [Compound 2, 7-benzyl-3-methyl-2,3,6,7,8,9-hexahydroimidazo[1,2-a]pyrido[3,4-e]pyrimidin-5(1H)-one] | + (+ indicating that the increased efficacy is less than 50% of the blank control group) | + (+ indicating that the increased efficacy is less than 50% of the blank control group) | > 10000
11 | O=c1nc2n(c3c1CN(Cc1ccccc1)CC3)CCN2Cc1ccccc1 [Compound 7, 7-benzyl-3-benzyl-2,3,6,7,8,9-hexahydroimidazo[1,2-a]pyrido[3,4-e]pyrimidin-5(1H)-one] | + + | + + | 500
12 | O=c1nc2n(c3c1CN(Cc1ccccc1)CC3)CCN2Cc1ccc2ccccc2c1 [Compound 8, 7-benzyl-3-(2-naphthylmethyl)-2,3,6,7,8,9-hexahydroimidazo[1,2-a]pyrido[3,4-e]pyrimidin-5(1H)-one] | + + | + + | 300
13 | O=c1nc2n(c3c1CN(Cc1ccccc1)CC3)CCN2CC1CC1 [Compound 5, 7-benzyl-3-cyclopropylmethyl-2,3,6,7,8,9-hexahydroimidazo[1,2-a]pyrido[3,4-e]pyrimidin-5(1H)-one] | + (+ indicating that the increased efficacy is less than 50% of the blank control group) | + + | > 10000
14 | Cc1ccccc1CN1CCn2c1nc(=O)c1c2CCN(C(=O)c2ccccc2)C1 [Compound 39, 7-benzoyl-3-(2-methylbenzyl)-2,3,6,7,8,9-hexahydroimidazo[1,2-a]pyrido[3,4-e]pyrimidin-5(1H)-one] | + (+ indicating that the increased efficacy is less than 50% of the blank control group) | + (+ indicating that the increased efficacy is less than 50% of the blank control group) | > 10000
15 | O=c1nc2n(c3c1CN(Cc1ccccc1)CC3)CCN2CC1CCCCC1 [Compound 6, 7-benzyl-3-cyclohexylmethyl-2,3,6,7,8,9-hexahydroimidazo[1,2-a]pyrido[3,4-e]pyrimidin-5(1H)-one] | + + | + + | 2500
16 | CCN1CCc2c(c(=O)nc3n2CCN3Cc2ccccc2C)C1 [Compound 28, 7-ethyl-3-(2-methylbenzyl)-2,3,6,7,8,9-hexahydroimidazo[1,2-a]pyrido[3,4-e]pyrimidin-5(1H)-one] | + (+ indicating that the increased efficacy is less than 50% of the blank control group) | + (+ indicating that the increased efficacy is less than 50% of the blank control group) | > 10000
17 | Cc1ccccc1CN1CCn2c1nc(=O)c1c2CCN(CC2CC2)C1 [Compound 30] | + (+ indicating that the increased efficacy is less than 50% of the blank control group) | + (+ indicating that the increased efficacy is less than 50% of the blank control group) | 
18 | O=c1nc2n(c3c1CN(Cc1ccccc1)CC3(F)F)CCN2Cc1ccc(F)c(Br)c1 [Compound 49, 7-Benzyl-9,9-difluoro-3-(3-bromo-4-fluorobenzyl)-2,3,6,7,8,9-hexahydroimidazo[1,2-a]pyrido[3,4-e]pyrimidin-5(1H)-one] | + + | + + | 
19 | O=c1nc2n(c3c1CN(Cc1ccccc1)CC3)CCN2c1ccccc1 [Compound 9, 7-benzyl-3-phenyl-2,3,6,7,8,9-hexahydroimidazo[1,2-a]pyrido[3,4-e]pyrimidin-5(1H)-one] | + (+ indicating that the increased efficacy is less than 50% of the blank control group) | + + | 
20 | Cc1ccccc1CN1CCn2c1nc(=O)c1c2CCN(C(=O)Cc2ccccc2)C1 [Compound 40, 3-(2-methylbenzyl)-7-(2-phenylacetyl)-2,3,6,7,8,9-hexahydroimidazo[1,2-a]pyrido[3,4-e]pyrimidin-5(1H)-one] | + (+ indicating that the increased efficacy is less than 50% of the blank control group) | + (+ indicating that the increased efficacy is less than 50% of the blank control group) | 
21 | Cc1ccccc1CN1CCn2c1nc(=O)c1c2CCN(CC2CCCCC2)C1 [Compound 31, 7-cyclohexylmethyl-3-(2-methylbenzyl)-2,3,6,7,8,9-hexahydroimidazo[1,2-a]pyrido[3,4-e]pyrimidin-5(1H)-one] | + (+ indicating that the increased efficacy is less than 50% of the blank control group) | + + | 
22 | O=c1nc2n(c3c1CN(Cc1ccccc1)CC3(F)F)CCN2Cc1ccccc1 [Compound 68, 3,7-Dibenzyl-9,9-difluoro-2,3,6,7,8,9-hexahydroimidazo[1,2-a]pyrido[3,4-e]pyrimidin-5(1H)-one] | + + | + + | 
